Laboratory results as given in PubChem BioAssay AID248 (DTP/NCI, 2004).
Values joined by “and” are separate entries in the source; they are usually repeats but may differ in a detail not shown here. Equal values may be shown once. Inconclusive results and toxic doses are left out. Rule as the data show it: active = T/C of 150% or more; inactive = T/C below 125%.

Test system: L1210 leukemia ip in BDF1 mice, survival T/C
Test: NCI In Vivo Anticancer Drug Screen. Data for tumor model L1210 Leukemia (intraperitoneal) in B6D2F1 (BDF1) mice
Conditions: higher = longer survival
Method in brief: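 Value reflects the ratio of survival in compound-treated mice to survival in vehicle-treated controls, with both groups carrying the same transplanted tumor.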

Measured: T/C

O=c1[nH]cc(F)c(=O)[nH]1
inactive: endpoint: mean survival time, dose: 0.06 mg/kg/injection, schedule: Q#A X Z (ip), vehicle: carboxymethylcellulose (CMC) 103 % of control | endpoint: mean survival time, dose: 0.12 mg/kg/injection, schedule: Q#A X Z (ip), vehicle: carboxymethylcellulose (CMC) 108 % of control | endpoint: mean survival time, dose: 0.25 mg/kg/injection, schedule: Q#A X Z (ip), vehicle: carboxymethylcellulose (CMC) 106 % of control | endpoint: mean survival time, dose: 0.5 mg/kg/injection, schedule: Q#A X Z (ip), vehicle: carboxymethylcellulose (CMC) 112 % of control | endpoint: mean survival time, dose: 0.63 mg/kg/injection, schedule: Q01DX015 (ip), vehicle: water 100 % of control | endpoint: mean survival time, dose: 0.75 mg/kg/injection, schedule: Q03DX006 (ip), vehicle: carboxymethylcellulose (CMC) 105 % of control | endpoint: mean survival time, dose: 1.0 mg/kg/injection, schedule: Q01DX009 (ip), vehicle: other 105 % of control | endpoint: mean survival time, dose: 1.4 mg/kg/injection, schedule: Q01DX Z (ip), vehicle: saline 109 % of control | endpoint: mean survival time, dose: 2.0 mg/kg/injection, schedule: Q01DX005 (iv), vehicle: carboxymethylcellulose (CMC) 108 % of control | endpoint: mean survival time, dose: 2.0 mg/kg/injection, schedule: Q01DX Z (im), vehicle: carboxymethylcellulose (CMC) 108 % of control | endpoint: mean survival time, dose: 2.0 mg/kg/injection, schedule: Q01DX Z (ip), vehicle: carboxymethylcellulose (CMC) 108 % of control | endpoint: mean survival time, dose: 2.5 mg/kg/injection, schedule: Q01DX015 (ip), vehicle: water 107 % of control | endpoint: mean survival time, dose: 4.0 mg/kg/injection, schedule: Q01DX005 (iv), vehicle: carboxymethylcellulose (CMC) 111 % of control | endpoint: mean survival time, dose: 4.8 mg/kg/injection, schedule: Q04DX002 (ip), vehicle: saline 93 % of control and 101 % of control | endpoint: mean survival time, dose: 5.0 mg/kg/injection, schedule: Q01DX006 (ip), vehicle: saline 110 % of control | endpoint: mean survival time, dose: 5.0 mg/kg/injection, schedule: Q01DX010 (ip), vehicle: saline 107 % of control | endpoint: mean survival time, dose: 8.0 mg/kg/injection, schedule: Q01DX005 (iv), vehicle: carboxymethylcellulose (CMC) 108 % of control | endpoint: mean survival time, dose: 8.4 mg/kg/injection, schedule: Q01DX009 (ip), vehicle: saline 102 % of control | endpoint: mean survival time, dose: 8.4 mg/kg/injection, schedule: Q01DX Z (ip), vehicle: saline 102 % of control | endpoint: mean survival time, dose: 9.5 mg/kg/injection, schedule: Q04DX002 (ip), vehicle: saline 101 % of control and 102 % of control | endpoint: mean survival time, dose: 10.0 mg/kg/injection, schedule: Q01DX009 (oral), vehicle: saline 111 % of control | endpoint: mean survival time, dose: 12.5 mg/kg/injection, schedule: Q04DX003 (ip), vehicle: saline 98 % of control | endpoint: mean survival time, dose: 13.3 mg/kg/injection, schedule: Q04DX003 (ip), vehicle: saline 110 % of control | endpoint: mean survival time, dose: 16.0 mg/kg/injection, schedule: Q#A X Z (ip), vehicle: carboxymethylcellulose (CMC) 108 % of control | endpoint: mean survival time, dose: 19.0 mg/kg/injection, schedule: Q04DX002 (ip), vehicle: saline 101 % of control | endpoint: mean survival time, dose: 27.5 mg/kg/injection, schedule: Q01DX012 (sc), vehicle: other 110 % of control | endpoint: mean survival time, dose: 30.0 mg/kg/injection, schedule: Q01DX009 (ip), vehicle: none 109 % of control | endpoint: mean survival time, dose: 30.0 mg/kg/injection, schedule: Q01DX009 (ip), vehicle: saline 101 % of control and 109 % of control | endpoint: mean survival time, dose: 30.0 mg/kg/injection, schedule: Q01DX Z (ip), vehicle: saline 97 % of control | endpoint: mean survival time, dose: 30.0 mg/kg/injection, schedule: Q## X Z (ip), vehicle: saline 98 % of control | endpoint: mean survival time, dose: 39.0 mg/kg/injection, schedule: Q01DX009 (ip), vehicle: saline 109 % of control | endpoint: mean survival time, dose: 39.0 mg/kg/injection, schedule: Q01DX Z (ip), vehicle: saline 96 % of control and 109 % of control | endpoint: mean survival time, dose: 40.0 mg/kg/injection, schedule: Q01DX010 (ip), vehicle: saline 100 % of control | endpoint: mean survival time, dose: 40.0 mg/kg/injection, schedule: Q01DX Z (ip), vehicle: methylcellulose (MC) 103 % of control | endpoint: mean survival time, dose: 45.0 mg/kg/injection, schedule: Q## X006 (ip), vehicle: saline 95 % of control | endpoint: mean survival time, dose: 50.0 mg/kg/injection, schedule: Q01DX Z (ip), vehicle: methylcellulose (MC) 94 % of control | endpoint: mean survival time, dose: 52.0 mg/kg/injection, schedule: Q01DX009 (ip), vehicle: saline 111 % of control | endpoint: mean survival time, dose: 64.0 mg/kg/injection, schedule: Q01DX Z (im), vehicle: carboxymethylcellulose (CMC) 96 % of control | endpoint: mean survival time, dose: 64.0 mg/kg/injection, schedule: Q01DX Z (oral), vehicle: carboxymethylcellulose (CMC) 94 % of control | endpoint: mean survival time, dose: 64.0 mg/kg/injection, schedule: Q01DX Z (sc), vehicle: carboxymethylcellulose (CMC) 105 % of control | endpoint: mean survival time, dose: 65.0 mg/kg/injection, schedule: Q01DX009 (ip), vehicle: saline 93 % of control | endpoint: mean survival time, dose: 67.0 mg/kg/injection, schedule: Q02DX010 (ip), vehicle: other 102 % of control | endpoint: mean survival time, dose: 67.1 mg/kg/injection, schedule: Q01DX005 (sc), vehicle: other 100 % of control | endpoint: mean survival time, dose: 68.0 mg/kg/injection, schedule: Q02DX010 (ip), vehicle: carboxymethylcellulose (CMC) 108 % of control | endpoint: mean survival time, dose: 68.0 mg/kg/injection, schedule: Q02DX010 (ip), vehicle: other 98 % of control | endpoint: mean survival time, dose: 80.0 mg/kg/injection, schedule: Q01DX005 (ip), vehicle: Klucel (hydroxypropylcellulose) (HPC) 97 % of control | endpoint: mean survival time, dose: 80.0 mg/kg/injection, schedule: Q01DX005 (ip), vehicle: acetone 100 % of control | endpoint: mean survival time, dose: 80.0 mg/kg/injection, schedule: Q01DX005 (ip), vehicle: other 100 % of control | endpoint: mean survival time, dose: 80.0 mg/kg/injection, schedule: Q01DX006 (ip), vehicle: saline 103 % of control | endpoint: mean survival time, dose: 80.0 mg/kg/injection, schedule: Q01DX009 (ip), vehicle: none 93 % of control | endpoint: mean survival time, dose: 80.0 mg/kg/injection, schedule: Q01DX009 (ip), vehicle: water 95 % of control | endpoint: mean survival time, dose: 80.0 mg/kg/injection, schedule: Q01DX009 (oral), vehicle: saline 103 % of control | endpoint: mean survival time, dose: 80.0 mg/kg/injection, schedule: Q01DX015 (ip), vehicle: saline 110 % of control | endpoint: mean survival time, dose: 80.0 mg/kg/injection, schedule: Q02DX005 (ip), vehicle: water 108 % of control | endpoint: mean survival time, dose: 90.0 mg/kg/injection, schedule: Q04DX004 (ip), vehicle: saline 98 % of control | endpoint: mean survival time, dose: 94.5 mg/kg/injection, schedule: Q02DX010 (ip), vehicle: carboxymethylcellulose (CMC) 109 % of control | endpoint: mean survival time, dose: 101.0 mg/kg/injection, schedule: Q02DX010 (ip), vehicle: carboxymethylcellulose (CMC) 95 % of control | endpoint: mean survival time, dose: 120.0 mg/kg/injection, schedule: Q01DX006 (ip), vehicle: saline 98 % of control | endpoint: mean survival time, dose: 120.0 mg/kg/injection, schedule: Q04DX003 (ip), vehicle: saline with Tween-80 93 % of control and 96 % of control and 102 % of control | endpoint: mean survival time, dose: 120.0 mg/kg/injection, schedule: Q## X004 (ip), vehicle: water 105 % of control | endpoint: mean survival time, dose: 128.0 mg/kg/injection, schedule: Q01DX005 (iv), vehicle: carboxymethylcellulose (CMC) 109 % of control | endpoint: mean survival time, dose: 164.0 mg/kg/injection, schedule: Q01DX002 (sc), vehicle: other 95 % of control | endpoint: mean survival time, dose: 177.6 mg/kg/injection, schedule: Q01DX001 (ip), vehicle: carboxymethylcellulose (CMC) 111 % of control | endpoint: mean survival time, dose: 180.0 mg/kg/injection, schedule: Q## X004 (ip), vehicle: water 107 % of control | endpoint: mean survival time, dose: 200.0 mg/kg/injection, schedule: Q02DX005 (ip), vehicle: saline 96 % of control | endpoint: mean survival time, dose: 200.0 mg/kg/injection, schedule: Q04DX002 (ip), vehicle: saline 110 % of control | endpoint: mean survival time, dose: 256.0 mg/kg/injection, schedule: Q01DX001 (sc), vehicle: other 101 % of control | endpoint: mean survival time, dose: 256.0 mg/kg/injection, schedule: Q01DX005 (iv), vehicle: carboxymethylcellulose (CMC) 103 % of control | endpoint: mean survival time, dose: 300.0 mg/kg/injection, schedule: Q01DX001 (ip), vehicle: Klucel (hydroxypropylcellulose) (HPC) 104 % of control | endpoint: mean survival time, dose: 320.0 mg/kg/injection, schedule: Q01DX009 (ip), vehicle: saline 94 % of control | endpoint: mean survival time, dose: 400.0 mg/kg/injection, schedule: Q04DX003 (ip), vehicle: saline 97 % of control | endpoint: mean survival time, dose: 400.0 mg/kg/injection, schedule: Q## X004 (ip), vehicle: alkali diluted with saline 109 % of control | endpoint: mean survival time, dose: 600.0 mg/kg/injection, schedule: Q01DX001 (ip), vehicle: carboxymethylcellulose (CMC) 106 % of control | endpoint: mean survival time, dose: 900.0 mg/kg/injection, schedule: Q01DX001 (ip), vehicle: water 101 % of control | endpoint: mean survival time, dose: 900.0 mg/kg/injection, schedule: Q## X004 (ip), vehicle: alkali diluted with saline 104 % of control | endpoint: median survival time, dose: 4.0 mg/kg/injection, schedule: Q01DX009 (ip), vehicle: saline 98 % of control and 100 % of control | endpoint: median survival time, dose: 8.0 mg/kg/injection, schedule: Q01DX009 (ip), vehicle: saline 98 % of control and 100 % of control | endpoint: median survival time, dose: 16.0 mg/kg/injection, schedule: Q01DX009 (ip), vehicle: saline 100 % of control and 102 % of control | endpoint: median survival time, dose: 23.0 mg/kg/injection, schedule: Q04DX003 (oral), vehicle: saline 106 % of control | endpoint: median survival time, dose: 65.0 mg/kg/injection, schedule: Q01DX005 (ip), vehicle: saline 98 % of control | endpoint: median survival time, dose: 65.0 mg/kg/injection, schedule: Q01DX009 (ip), vehicle: saline 106 % of control | endpoint: median survival time, dose: 75.0 mg/kg/injection, schedule: Q01DX001 (ip), vehicle: saline 109 % of control | endpoint: median survival time, dose: 300.0 mg/kg/injection, schedule: Q01DX001 (ip), vehicle: alkali diluted with saline 97 % of control | endpoint: median survival time, dose: 300.0 mg/kg/injection, schedule: Q04DX003 (oral), vehicle: saline 102 % of control | endpoint: median survival time, dose: 300.0 mg/kg/injection, schedule: Q04DX003 (sc), vehicle: saline 105 % of control | endpoint: median survival time, dose: 500.0 mg/kg/injection, schedule: Q04DX003 (oral), vehicle: saline 108 % of control | endpoint: median survival time, dose: 600.0 mg/kg/injection, schedule: Q01DX001 (ip), vehicle: alkali diluted with saline 101 % of control
